# Test results: US20230128402A1 (The Trustees of Princeton University, priority 2020, published 2023)
# Read-outs that look alike come from different tables or passages of the source.
# Assays:
# [1] = Fast and refeed insulin secretion in db/db mice; type: in vivo, mouse; conditions: 40 mg per kg oral gavage once per day, 14 days
# Method: C57/Bl6 mice homozygous for the spontaneous mutation (Lepr^db, referred to as db/db) that develop severe obesity and Type 2 Diabetes within 12 weeks were raised through standard husbandry practice and we separated into two groups followed by acclimatization for 9 days in single housing.
# Daily food intake and body mass were monitored each day and baseline levels of plasma insulin and glucose were monitored to confirm identical group characteristics.
# Compound MBE1 was dissolved to 200 mg/mL in DMSO followed by suspension into a 0.5% methycellulose, 0.5% Tween-80 solution. Mice were treated via oral gavage once per day to achieve 40 mg per kg body mass MBE1 or were treated with vehicle control. Mouse body mass and food consumption were monitored daily over 14 days.
# At Day 14, food was removed from mouse cages for 16 hours, and then food was reintroduced. Plasma insulin levels were assayed by ELISA at baseline and at 1 hour, 2 hour and 4 hours following provision of chow and ad libitum feeding.
# ALDH1a3 [2] = molecular target: T1, ALDH1a3 (Homo sapiens, UniProt P47895); assay: ALDEFLUOR assay in SUM159-M1a-Aldh1a3 cells; type: cell-based; parameters: lentiviral vectors containing either the vector backbone or full-length human Aldh1a3; expressed in transfected cells; host or cells: SUM159-M1a human breast cancer cells, lentiviral pLex vector; conditions: for inhibition of ALDH1a3 activity (percentage of ALDEFLUOR-positive cells): 100 nM, FIG. 6A; for inhibitory activity detected at concentrations as low as: SUM 159-M1a-Aldh1a3 cells, FIG. 6B
# T1 sequence (P47895 1-512): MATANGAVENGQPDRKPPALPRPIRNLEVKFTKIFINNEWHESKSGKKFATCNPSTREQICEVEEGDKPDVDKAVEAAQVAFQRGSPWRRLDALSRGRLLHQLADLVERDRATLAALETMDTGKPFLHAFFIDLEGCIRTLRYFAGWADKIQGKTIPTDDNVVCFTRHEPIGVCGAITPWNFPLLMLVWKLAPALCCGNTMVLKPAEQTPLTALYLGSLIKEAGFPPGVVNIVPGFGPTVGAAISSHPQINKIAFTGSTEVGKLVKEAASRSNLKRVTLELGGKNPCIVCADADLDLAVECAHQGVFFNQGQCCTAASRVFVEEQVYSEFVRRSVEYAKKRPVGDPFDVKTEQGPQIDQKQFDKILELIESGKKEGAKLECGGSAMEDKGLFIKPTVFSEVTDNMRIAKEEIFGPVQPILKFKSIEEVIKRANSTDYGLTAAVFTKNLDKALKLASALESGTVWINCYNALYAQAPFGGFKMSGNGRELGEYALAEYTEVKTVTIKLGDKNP
# Method: Cells were counted, centrifuged and resuspended at 1,000,000 cells/mL in ALDEFLUOR™ buffer (Stemcell Technologies). ALDEFLUOR™ substrate (Stemcell Technologies, 1:200) and test compound or 1 mM DEAB were added to cell suspension and incubated at 37° C. for 45 minutes with vortexing every 15 minutes. Cells were centrifuged and resuspended in ALDEFLUOR™ buffer with DAPI at 5 μg/mL. Samples were analyzed with the BD LSR2 flow cytometry platform. Gating was performed using DEAB as a negative control.
# (§1) Gating for background fluorescence was performed using 1 millimolar DEAB as a negative control.
# The [inh-min]threshold was set at the lower bound of two standard deviations of control samples, while the IC50 threshold was set at 50% of the average of control samples.
# An ALDEFLUOR™ assay was also used to assess the relative activity of several compounds described herein against SUM159-M1a-Aldh1a3 cells.
# [3] = Toxicity experiments in C57Bl6 mice; type: in vivo, mouse; conditions: IP, ascending 12.5 to 200 mg/kg at 24h intervals; 25 mg/kg every 3 days for 18 days
# Method: All mice were originally ordered from the Jackson Laboratory (Bar Harbor, Me.) and breeding was conducted in a specific pathogen-free (SPF) barrier facility. Toxicity experiments were performed on 8-12-week old male and female C57Bl6 mice. MBE1 was dissolved at 50 mg/mL in DMSO followed by a […] into Kolliphor EL, followed by a 1:5 dilution into PBS to yield a 5 mg/ml MBE1 solution, (10% DMSO, 10% Kolliphor EL, 80% PBS). This was administered via IP injection at ascending doses from 12.5 to 200 mg/kg body mass in a set of 3 mice at 24h intervals. Body condition score, food uptake, fecal/urine production, behavior and body weight were measured as toxicity readouts. Five mice were then treated every 3 days with 25 mg/kg MBE1 for 18 days.
# SUM 159-M1a cells [4] = conditions: shown in PCT/US2019/044278; cited from earlier work
# [5] = Pharmacokinetic profiling in mice
# SUM 159-M1a cells [6] = assay: SUM 159-M1a xenograft metastasis, tail vein or intracardiac injection; type: in vivo, mouse; conditions: IP in conjunction with paclitaxel; FIGS. 9B and 10B
# Method: All xenograft experiments were conducted on 8-week old female mice (athymic Nu/Nu, or NOD/SCID Gamma). Xenograft experiments were conducted using 125,000 SUM 159-M1a cells in 100 μL PBS for tail vein or intracardiac injection. Mice were randomized following injection. Bioluminescent imaging (BLI) was conducted using the IVIS 200 system and retroorbital luciferin injection. For drug treatment, MBE1 was given to mice via IP injection in conjunction with paclitaxel (5 mg/mL in 10% ethanol, 10% Kolliphor EL, 80% PBS) at the time intervals and dosages indicated in FIG. 9A (tail vein injection) and FIG. 10A (intracardiac injection).
# HEK293T cells = assay: LC-MS metabolite quantification in HEK293T cells; type: cell-based; conditions: 10 uM, 1 hour
# Method: HEK293T cells were grown to full confluence and media was exchanged with complete DMEM media supplemented with 10% dialyzed fetal bovine serum. Three replicate plates per group were treated with 10 uM MBE1.5 or control DMSO for 1 hour followed by organic extraction with 40:40:20 methanol:acetonitrile:water w/0.5% formic acid (ice cold). Plates were immediately transferred to ice and incubated for 5 minutes then 50 ul 15% NH4HCO3 was added. Cells lysates were scraped and centrifuged at 15000 RCF. Supernatants were then analyzed via LC-MS to quantify various metabolites using standard metabolomic protocols.
# HCT116 cells = assay: HCT116 left ventricle injection metastasis xenograft; type: in vivo, mouse; conditions: 50 mg/kg subcutaneously every day, paclitaxel 25 mg/kg every three days
# Method: In another xenograft experiment, mice were injected HCT116 cells via left ventricle injection and monitored with BLI on a weekly basis during the experiment. MBE1.5 or vehicle control were injected subcutaneously every day following injection at 50 mg/kg. At day 7 following injection, paclitaxel was dosed at 25 mg/kg every three days for a total of 6 injections. N=10 mice per group.
# MDA-MB-468 cells = assay: MDA-MB-468 mammary fat pad primary tumor xenograft; type: in vivo, mouse; conditions: 25 mg/kg daily, 12 days
# Method: In yet another xenograft experiment, mice were injected with MDA-MB-468 cells via mammary fat pad, and were randomized following injection. […] Primary tumor measurements were taken by caliper between each treatment group.
# [7] = test system: Sum-159-M1a-Aldh 1a3 cells; assay: Sum-159-M1a-Aldh1a3 tail-vein lung metastasis xenograft; type: in vivo, mouse; conditions: 25 mg/kg daily, 12 days, with paclitaxel 12.5 mg/kg every other day
# Method: In another xenograft experiment, mice were injected with Sum-159-M1a-Aldh 1a3 cells via tail-vein injection, and were randomized following injection. Mice were treated with MBE1.5 (25 mg/kg daily) or vehicle, and paclitaxel (12.5 mg/kg every other day) for twelve days. Lung metastasis progression was tracked by intravital bioluminescence.
# SUM 159-M1-p44 cells = assay: SUM 159-M1-p44 tail-vein lung metastasis xenograft; type: in vivo, mouse; conditions: 50 mg/kg with 25 mg/kg paclitaxel on days 17, 19 and 21
# Method: In another xenograft experiment, mice were injected with SUM 159-M1-p44 cells via tail-vein injection, as described above, and randomized following injection. Metastatic burden was imaged on day 16 via intravital imaging. Mice were then treated with paclitaxel (25 mg/kg) and either vehicle or MBE1.5 (50 mg/kg) on days 17, 19 and 21. Lung metastatic burden was then imaged on day 22. Signals were normalized to day 16.
# [8] = male, CD-1/C57BL/6, mouse, in vivo
# in vivo = conditions: male, CD-1/C57BL/6, mouse
# ALDH1a3 [9] = molecular target: T2, ALDH1a3 (Mus musculus, UniProt Q9JHW9); assay: ALDEFLUOR assay on pancreatic cells from diabetic and lean mice; type: cell-based; conditions: 10 μM; diabetic vs healthy mice
# T2 construct: from tissue; host or cells: pancreatic cells from C57/BL6 mice (diet-induced diabetic and lean)
# T2 sequence (Q9JHW9 1-512): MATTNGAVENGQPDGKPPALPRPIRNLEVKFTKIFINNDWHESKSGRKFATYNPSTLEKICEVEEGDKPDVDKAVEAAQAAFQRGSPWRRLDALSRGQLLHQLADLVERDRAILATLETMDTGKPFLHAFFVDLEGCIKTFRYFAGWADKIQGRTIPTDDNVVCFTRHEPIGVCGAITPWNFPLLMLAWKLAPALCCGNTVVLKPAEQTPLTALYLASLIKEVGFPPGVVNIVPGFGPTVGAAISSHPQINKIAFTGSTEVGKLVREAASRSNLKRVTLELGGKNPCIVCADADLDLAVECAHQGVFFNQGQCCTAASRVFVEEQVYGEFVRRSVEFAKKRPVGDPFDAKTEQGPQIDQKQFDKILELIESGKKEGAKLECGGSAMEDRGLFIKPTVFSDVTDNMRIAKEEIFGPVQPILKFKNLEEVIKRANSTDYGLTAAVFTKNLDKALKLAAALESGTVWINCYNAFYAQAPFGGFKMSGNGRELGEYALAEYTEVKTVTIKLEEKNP
# Method: In the ALDEFLUOR™ assay used in this example, 14 month-old C57/BL6 high fat diet-induced severe obese/diabetic mice and 3 month-old lean C57/B16 mice were euthanized and pancreatic cells were extracted with 1 mg/mL Collagenase 1 digestion in PBS for 1 hour at 37 C. Single cell suspensions were obtained by filtration through 40 μm cell sieves. Cells were washed by two sequential centrifugations and resuspension in PBS.
# Cells were counted, centrifuged and resuspended at 1,000,000 cells/mL in ALDEFLUOR™ buffer (Stemcell Technologies). ALDEFLUOR™ substrate (Stemcell Technologies, 1:200) and test compound (MBE 1.5 at 10 μM or 1 mM DEAB were added to cell suspension and incubated at 37° C. for 45 minutes with vortexing every 15 minutes. Cells were centrifuged and resuspended in ALDEFLUOR™ buffer with DAPI at 5 μg/mL. Samples were analyzed with the BD LSR2 flow cytometry platform.
# as §1
# [10] = SUM159-M1a-Aldh1a3 cells, compound at 100 nM
# [11] = with paclitaxel 12.5 mg/kg every other day
compound,measurement,setting,value
"CCc1cnccc1C(=O)Nc1cc2c(cc1F)NC(=O)CC2 [Compound 1, 3-ethyl-N-(7-fluoro-2-oxo-3,4-dihydro-1H-quinolin-6-yl)pyridine-4-carboxamide]",plasma insulin after fast and refeed challenge (ELISA),[1],effectively improve insulin secretion
same,inhibition of ALDH1a3 activity (percentage of ALDEFLUOR-positive cells),ALDH1a3 [2],high-affinity compounds for the inhibition of ALDH1a3 activity
same,inhibitory activity detected at concentrations as low as,ALDH1a3 [2],2 nM
same,Inhi-bitory Activity at 100 nM (%),ALDH1a3 [2]; [10],99%
same,Percent of Cells Positive for ALDEFLUOR ™ at 100 nM,ALDH1a3 [2]; [10],0.73%
same,acute or chronic toxicity,[3],Neither experiment showed any indication of either acute or chronic toxicity
same,metastatic lesions in mice,SUM 159-M1a cells [4],shrink metastatic lesions in mice without toxicity
same,"cage side observations, adverse reactions","[5]; 10 mg/kg oral gavage or 1 mg/kg intravenous, 0 hours to 24 hours post-dosing",no adverse reactions
same,half-life,"[5]; male, CD-1/C57BL/6, mouse, plasma, iv, 1 mg/kg",107 min
same,bioavailability,"[5]; male, CD-1/C57BL/6, mouse, plasma, oral, 10 mg/kg",88%
same,half-life,"[5]; male, CD-1/C57BL/6, mouse, plasma, po, 10 mg/kg",82.2 min
same,time plasma concentrations exceed 5-fold the IC50,"[5]; mice, oral gavage (PO) and intravenous (IV)",> 10 h
same,lung and bone metastasis (BLI),SUM 159-M1a cells [6],effective therapeutic to treat established metastatic disease
"CCc1ccccc1C(=O)Nc1cc2c(cc1F)NC(=O)CC2 [Compound 4, 2-ethyl-N-(7-fluoro-2-oxo-3,4-dihydro-1H-quinolin-6-yl)benzamide]",NADH (LC-MS),HEK293T cells,depletion of NADH
same,adipate semialdehyde (LC-MS),HEK293T cells,increases in adipate semialdehyde
same,colorectal cancer metastasis (BLI),HCT116 cells,slows colorectal cancer metastasis
same,inhibition of ALDH1a3 activity (percentage of ALDEFLUOR-positive cells),ALDH1a3 [2],high-affinity compounds for the inhibition of ALDH1a3 activity
same,inhibitory activity detected at concentrations as low as,ALDH1a3 [2],2 nM
same,tumors completely eliminated,"MDA-MB-468 cells; n=6, with paclitaxel",tumors of two mice in the MBE1.5 treatment group were completely eliminated
same,gross toxicity (body mass),MDA-MB-468 cells; [11],no gross toxicity
same,primary tumor volume,MDA-MB-468 cells; [11],caused regression of primary breast tumors
same,survival,[7],extended survival in mice with late-stage established breast cancer lung metastasis
same,lung metastatic burden (BLI),SUM 159-M1-p44 cells,caused regression of established metastatic disease
same,time plasma concentrations exceed 5-fold the IC50,[8],> 10 h
same,bioavailability,in vivo,62.5%
same,half-life,"in vivo; iv, 1 mg/kg",73.2 min
same,half-life,"in vivo; po, 10 mg/kg",102 min
same,percentage of ALDEFLUOR-positive pancreatic islet cells,ALDH1a3 [9],high-affinity compound for the inhibition of ALDH1a3 activity
